According to patent US20230146455A1, “TREATMENT OF INFLAMMATORY DISEASES WITH PEPTIDES AND PHARMACEUTICAL COMPOSITIONS” (Yuyu Pharma, Inc., priority 2020, published 2023):
“And” between values parts separate entries of the source, which are not always exact repeats. Equal values may be shown once. Where a SMILES comes first, the peptide text is derived from it. [ ]: non-standard residue; d: D form. Hyp = O=C(O)[C@@H]1C[C@@H](O)CN1

System: Fas Ligand
Assay: Example 9 Luminex, LPS hPBMCs: Fas Ligand
Format: cell-based, human
Conditions: for MFI, bead Fas Ligand / Fas Ligand Concentration / Fas Ligand conc/live cell: single replicates
Procedure: Treatment Human PBMCs were pretreated with YY-101, YDE-011 and YDE-043 or reference compound; Xiidra® at various concentration (ranging from 1 nM to 100 uM) for 2 h before stimulation. An equal volume of 0.5% DMSO was used as a vehicle control. Then, the cells were treated with LPS at 5 ug/ml. The supernatants from treated cells were harvested at 24 h and placed in a 96 well for Luminex cytokine & chemokine profiling using a Luminex 200 multiplex assay (Luminex; R&D system, USA).
The main study arm with triplicate wells per group in a 24-well plate: • 1. Blank • 2. PBMC: 0.5% DMSO • 3. PBMC+LPS (5 ug/ml) • 4. PBMC+YY-101 100 uM • 5. PBMC+YY-101 10 uM • 6. PBMC+YY-101 1 uM • 7. PBMC+YY-101 0.1 uM • 8. PBMC+YY-101 0.01 uM • 9. PBMC+LPS (5 ug/ml)+Xiidra®100 uM • 10. PBMC+LPS (5 ug/ml)+Xiidra® 10 uM • 11. PBMC+LPS (5 ug/ml)+Xiidra® 1 uM • 12. PBMC+LPS (5 ug/ml)+Xiidra®0.1 uM • 13. PBMC+LPS (5 ug/ml)+Xiidra®0.01 uM • 14. PBMC+LPS (5 ug/ml)+Xiidra®0.001 uM • 15. PBMC+LPS (5 ug/ml)+YY-101 100 uM • 16. PBMC+LPS (5 ug/ml)+YY-101 10 uM • 17. PBMC+LPS (5 ug/ml)+YY-101 1 uM • 18. PBMC+LPS (5 ug/ml)+YY-101 0.1 uM • 19. PBMC+LPS (5 ug/ml)+YY-101 0.01 uM • 20. PBMC+LPS (5 ug/ml)+YY-101 0.001 uM • 21. PBMC+LPS (5 ug/ml)+YDE-011 100 uM • 22. PBMC+LPS (5 ug/ml)+YDE-011 10 uM • 23. PBMC+LPS (5 ug/ml)+YDE-011 1 uM • 24. PBMC+LPS (5 ug/ml)+YDE-011 0.1 uM • 25. PBMC+LPS (5 ug/ml)+YDE-011 0.01 uM • 26. PBMC+LPS (5 ug/ml)+YDE-011 0.001 uM • 27. PBMC+LPS (5 ug/ml)+YDE-043 100 uM • 28. PBMC+LPS (5 ug/ml)+YDE-043 10 uM • 29. PBMC+LPS (5 ug/ml)+YDE-043 1 uM • 30. PBMC+LPS (5 ug/ml)+YDE-043 0.1 uM • 31. PBMC+LPS (5 ug/ml)+YDE-043 0.01 uM • 32. PBMC+LPS (5 ug/ml)+YDE-043 0.001 uM
Multiplex assay was used to measure 30 cytokines and chemokines. The 1:2, 1:10 and 1:200 diluted cell supernatant and serial dilution of the standard were dispensed into a 96 well plate at 50 ul/well. Then, the pre-mixed cocktail of antibody-coated magnetic beads was dispensed at 50 ul/well and incubated at room temperature for 2 h in a horizontal orbital microplate shaker at 800±500 rpm. The beads were washed using a magnetic device to prevent loss. The biotin-antibody was dispensed in 50 ul of each well and incubated at room temperature for 1 h in a shaker at 800±500 rpm. After washing, streptavidin-PE was added at 50 ul/well and incubated at room temperature for 30 min in a shaker under the same conditions. Finally, after washing, wash buffer (100 ul/well) was added to the plate and incubated in a shaker for 2 min. The Luminex™ 200 setting were set according to the manufacturer's protocol. The data was calculated with a standard five-parameter logistic nonlinear regression analysis of the data (xPonent software 4.2, USA). The levels of cytokine/chemokine are normalized to the live cell counts (1×10^5 cells/mL) and presented as concentrations per mL (pg/mL or ng/mL).

[1] = PBMC + LPS(5 ug/ml) + test article 0.1 uM
[2] = PBMC + LPS(5 ug/ml) + test article 1 uM
[3] = PBMC + LPS(5 ug/ml) + test article 10 uM
[4] = PBMC + LPS(5 ug/ml) + test article 100 uM
[5] = PBMC + test article 0.01 uM, no LPS
[6] = PBMC + test article 0.1 uM, no LPS
[7] = PBMC + test article 1 uM, no LPS
[8] = PBMC + test article 10 uM, no LPS
[9] = PBMC + test article 100 uM, no LPS

With `CC(C)C[C@H](NC(=O)CNC(=O)[C@H](CC(=O)O)NC(=O)[C@H](CCC(N)=O)NC(=O)CNC(=O)[C@@H]1C[C@@H](O)CN1)C(=O)N[C@@H](C)C(=O)NCC(=O)N1CCC[C@H]1C(=O)N[C@@H](CCCCN)C(=O)O` [YY-101] (H-[Hyp]GQDGLAGPK-OH; N-terminus and C-terminus assumed) the “MFI, bead Fas Ligand” value (PBMC + LPS(5 ug/ml) + test article 0.01 uM) was 43.0 and 55.5 and 44.0, the “Fas Ligand Concentration, Mean” value [1] was 29.5 pg/mL and the “Fas Ligand conc/live cell, Mean” value [1] was 5.1 pg/10^5. The “MFI, bead Fas Ligand, Mean” value [1] was 41.3, the “Fas Ligand Concentration” value [1] was 32.7 pg/mL and 30.7 pg/mL and 25.2 pg/mL and the “Fas Ligand conc/live cell” value [1] was 5.3 pg/10^5 and 5.9 pg/10^5 and 4.1 pg/10^5. The “MFI, bead Fas Ligand” value [1] was 46.0 and 43.0 and 35.0, the “Fas Ligand Concentration, Mean” value [2] was 34.5 pg/mL and the “Fas Ligand conc/live cell, Mean” value [2] was 5.3 pg/10^5. The “MFI, bead Fas Ligand, Mean” value [2] was 48.5, the “Fas Ligand Concentration” value [2] was 35.5 pg/mL and 36.2 pg/mL and 31.7 pg/mL and the “Fas Ligand conc/live cell” value [2] was 5.6 pg/10^5 and 5.1 pg/10^5 (2×). For the same compound, the “MFI, bead Fas Ligand” value [2] was 50.0 and 51.0 and 44.5, the “Fas Ligand Concentration, Mean” value [3] was 46.7 pg/mL and the “Fas Ligand conc/live cell, Mean” value [3] was 7.3 pg/10^5. For the same compound, the “MFI, bead Fas Ligand, Mean” value [3] was 66.0, the “Fas Ligand Concentration” value [3] was 58.0 pg/mL and 53.7 pg/mL and 28.6 pg/mL and the “Fas Ligand conc/live cell” value [3] was 9.7 pg/10^5 and 8.4 pg/10^5 and 3.8 pg/10^5. For the same compound, the “MFI, bead Fas Ligand” value [3] was 82.0 and 76.0 and 40.0, the “Fas Ligand Concentration, Mean” value [4] was 25.4 pg/mL and the “Fas Ligand conc/live cell, Mean” value [4] was 4.3 pg/10^5. For the same compound, the “MFI, bead Fas Ligand, Mean” value [4] was 35.2, the “Fas Ligand Concentration” value [4] was 39.0 pg/mL and 16.0 pg/mL and 21.1 pg/mL and the “Fas Ligand conc/live cell” value [4] was 6.2 pg/10^5 and 2.6 pg/10^5 and 4.2 pg/10^5. The “MFI, bead Fas Ligand” value [4] was 55.0 and 21.5 and 29.0, the “Fas Ligand Concentration, Mean” value [5] was 7.7 pg/mL and the “Fas Ligand conc/live cell, Mean” value [5] was 1.5 pg/10^5. For the same compound, the “MFI, bead Fas Ligand, Mean” value [5] was 8.8, the “Fas Ligand Concentration” value [5] was 6.5 pg/mL and 8.8 pg/mL and the “Fas Ligand conc/live cell” value [5] was 1.3 pg/10^5 and 1.8 pg/10^5. For the same compound, the “MFI, bead Fas Ligand” value [5] was 7.0 and 10.5, the “Fas Ligand Concentration, Mean” value [6] was 7.2 pg/mL and the “Fas Ligand conc/live cell, Mean” value [6] was 1.4 pg/10^5. The “MFI, bead Fas Ligand, Mean” value [6] was 8.0, the “Fas Ligand Concentration” value [6] was 6.5 pg/mL and 7.8 pg/mL and the “Fas Ligand conc/live cell” value [6] was 1.5 pg/10^5 and 1.3 pg/10^5. For the same compound, the “MFI, bead Fas Ligand” value [6] was 7.0 and 9.0, the “Fas Ligand Concentration, Mean” value [7] was 7.5 pg/mL and the “Fas Ligand conc/live cell, Mean” value [7] was 1.4 pg/10^5. For the same compound, the “MFI, bead Fas Ligand, Mean” value [7] was 8.5, the “Fas Ligand Concentration” value [7] was 6.5 pg/mL and 8.5 pg/mL and the “Fas Ligand conc/live cell” value [7] was 1.2 pg/10^5 and 1.5 pg/10^5. The “MFI, bead Fas Ligand” value [7] was 7.0 and 10.0, the “Fas Ligand Concentration, Mean” value [8] was 13.2 pg/mL and the “Fas Ligand conc/live cell, Mean” value [8] was 2.1 pg/10^5. For the same compound, the “MFI, bead Fas Ligand, Mean” value [8] was 17.3, the “Fas Ligand Concentration” value [8] was 14.0 pg/mL and 12.4 pg/mL and the “Fas Ligand conc/live cell” value [8] was 2.2 pg/10^5 and 2.0 pg/10^5. The “MFI, bead Fas Ligand” value [8] was 18.5 and 16.0, the “Fas Ligand Concentration, Mean” value [9] was 6.9 pg/mL and the “Fas Ligand conc/live cell, Mean” value [9] was 1.0 pg/10^5. For the same compound, the “MFI, bead Fas Ligand, Mean” value [9] was 7.5, the “Fas Ligand Concentration” value [9] was 7.8 pg/mL and 5.9 pg/mL and the “Fas Ligand conc/live cell” value [9] was 1.2 pg/10^5 and 0.8 pg/10^5. The “MFI, bead Fas Ligand” value [9] was 9.0 and 6.0.
